Our source for the viability, T/C and IC50 values is PubChem BioAssay AID1963424 (Molecular Pharmacology Branch, DTP, NCI, 2024).

As a reminder, the viability, T/C is the result in the treated group divided by that in the control group, in per cent. The IC50 is the concentration that inhibits the measured activity by half.

Several values for one entry are separate records, joined by “and”; a condition that tells them apart may be missing. Equal values may be shown once.

The test system of the experiment is 327498-153-R-J2-PDC complex spheroid growth, % test/control. Put plainly: Anticancer human tumor 327498-153-R-J2-PDC patient-derived uterine carcinosarcoma cell line growth inhibition [Asc]. Particulars: for viability, T/C: stronger effect = lower value. Here is the method:
Multicellular complex tumor spheroid response to apoptosis pathway targeting inhibitors Alrizomadlin, Pelcitoclax, and Dasminapant in combination with a variety of drugs and investigational agents in selected tumor cell lines
The MDM2 inhibitor alrizomadlin, the Bcl-2/Bcl-xL inhibitor pelcitoclax, and the IAPs inhibitor dasminapant were evaluated both individually and in combination with standard of care and investigational anticancer small molecules within a complex spheroid model of solid tumors. . Complex spheroids include a stromal component modeled by human endothelial cells (HUVEC) and fibroblasts modeled by human mesenchymal stem cells (MSCs). The concentration ranges selected for each drug and investigational agent were based upon clinically achievable concentrations if the clinical Cmax of the agent was known.
Compounds. The drugs and investigational agents: alrizomadlin (APG-115; NSC831270), pelcitoclax (APG-1252; NSC835773), dasminapant (APG-1387;NSC834197), TAK-243 (NSC785004), copanlisib (NSC809693), olaparib (NSC753686), talazoparib (NSC767125), cobimetinib (NSC 768068), eltanexor (KPT-8602, NSC 794443), abemaciclib (NSC 768073), sotorasib (NSC818433), adagrasib (NSC 831453), MRTX-1133 (NSC 836407), Iadademestat (ORY1001, NSC 806812), and RMC-4630 (NSC839698), were obtained from the NCI Developmental Therapeutics Program Chemical Repository. The FDA-approved anticancer drug set is available from the Developmental Therapeutics Program at https://dtp.cancer.gov/organization/dscb/obtaining/available plates.htm. […] The stock solutions were prepared in dimethyl sulfoxide (DMSO, Sigma-Aldrich, St. Louis, MO, cat. D2650) at 800-fold the tested concentration and stored at -70 degrees C prior to their use. All drugs and investigational agents were tested over a range starting from a high concentration at or near the clinical Cmax and decreasing in half-log increments. If the clinical Cmax for an agent had not been determined, the highest concentration tested was 10 microM.
The patient-derived cancer (PDC) cell lines include five colon adenocarcinomas: 186277-243-T-J2-PDC, 616215-338-R-J1-PDC, 439559-082-T-J2-PDC, 463943-066-T-J2-PDC, and 519858-162-T-J1-PDC; three pancreatic carcinomas: 323965-272-R-J2-PDC, 521955-158-R6-J3-PDC, and 521955-158-R2-J5-PDC; two uterine sarcomas: 327498-152-R-J2-PDC and 993429-296-R-J1-PDC; two rhabdomyosarcomas: 755483-174-R-J1-PDC and 772245-204-R-J1-PDC; two soft tissue sarcomas: 126254-015-R-J1-PDC and 494315-158-R-J1-PDC; two malignant fibrous histiocytomas: 317291-083-R-J1-PDC and 596521-263-R-J1-PDC; two breast carcinomas: 171881-019-R-J1-PDC and 885512-296-R-J2-PDC; and one ovarian carcinoma: 6556581-035-R-J-PDC were obtained from the NCI PDMR, (https://pdmr.cancer.gov). The established cell lines HSSY-2 synovial sarcoma (RRID:CVCL 8719), SYO-1 synovial sarcoma (RRID:CVCL_7146), MPNST malignant peripheral neural sheath tumor were obtained from the Sloan Kettering Institute. The following established cell lines were purchased from the American Type Culture Collection (ATCC, Manassas, VA), Sor the received from the NCI repository:, PANC-1 pancreatic carcinoma (CRL-1469, RRID:CVCL_0480), OVCAR-5 ovarian carcinoma (RRID:CVCL_1628), OVCAR-8 ovarian carcinoma (RRID:CVCL_1629), , MCF-7 breast carcinoma (CRL-12584, RRID:CVCL_0031), MDA-MB-231 breast carcinoma (CRL-12532, RRID:CVCL_0062), NCI-H1876 small cell lung carcinoma (CRL-5902, RRID:CVCL_1503), NCI-H510A small cell lung carcinoma (HTB-184, RRID:CVCL_1565), NCI-H1417 (CRL-5869, RRID:CVCL_1469), and NCI-H196 small cell lung carcinoma (CRL-5823, RRID:CVCL_1509). Dr. Peter Houghton (Greehey Children's Cancer Research Institute, University of Texas Health Science Center, San Antonio, TX) provided Rh-18 rhabdomyosarcoma (RRID:CVCL_1659). Pooled donor human umbilical vein endothelial cells (HUVEC, Lonza, cat. CC-2519) and human mesenchymal stem cells (hMSC, Lonza, cat. PT-2501) were purchased from Lonza (Walkersville, MD).
Cell Culture. […]

[1] abbreviates: compound alone, run of 09/27/2022.
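Further: spheroids exposed to compound for 7 days after 3 days of growth.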
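Wherever viability, T/C is given: 100% = DMSO vehicle control wells.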

`C#Cc1c(F)ccc2cc(O)cc(-c3ncc4c(N5CC6CCC(C5)N6)nc(OCC56CCCN5CC(F)C6)nc4c3F)c12` (centres undefined): the viability, T/C was 108% and 96.6% and 89.6% (compound 0.0316 µM); 101% and 100% and 94% (compound 0.1 µM); 101% and 82.7% and 90.7% (compound 0.316 µM); 82.9% and 72.4% and 78.3% (compound 1 µM); 69.9% and 64.9% and 68.1% (compound 3.16 µM); 58% and 47.4% and 53.3% (compound 10 µM). The IC50 (curve of compound) is > 10000 nM and 8780 nM.
As for `C=C(F)C(=O)N1CCN(c2nc(OCC3CCCN3C)nc3c2CCN(c2cccc4cccc(Cl)c24)C3)CC1CC#N` (centres undefined), the viability, T/C was 68.8% and 82.4% and 85% (compound 0.0316 µM); 61.8% and 69.6% and 74.7% (compound 0.1 µM); 56.1% and 67.6% and 66% (compound 0.316 µM); 48.2% and 59.2% and 62.2% (compound 1 µM); 19.4% and 14.3% and 24.8% (compound 3.16 µM); 0.22% and 0.23% and 0.25% (compound 10 µM). The IC50 (curve of compound) is 654 nM and 1240 nM and 1270 nM.
With `C=CC(=O)N1CCN(c2nc(=O)n(-c3c(C)ccnc3C(C)C)c3nc(-c4c(O)cccc4F)c(F)cc23)C(C)C1` (centres undefined), the viability, T/C was 79% and 84.1% and 96.8% (compound 0.0316 µM); 81.7% and 85.2% and 87.5% (compound 0.1 µM); 63.5% and 71.4% and 76% (compound 0.316 µM); 71.2% and 69.4% and 84.9% (compound 1 µM); 66.3% and 67.2% and 77.7% (compound 3.16 µM); 60.9% and 59.4% and 66% (compound 10 µM). Also, the IC50 (curve of compound) is greater than 10000 nM.
Regarding `CCN1C(C(=O)NC23CCC(C(=O)O)(CC2)CC3)C(c2cccc(Cl)c2F)C2(C(=O)Nc3cc(Cl)ccc32)C12CCCCC2` (centres undefined), the viability, T/C is 90.4% and 97.6% (compound 0.00949 µM); 88.7% [middle of 15 runs] (compound 0.03 µM); 74.7% [middle of 15 runs] (compound 0.0949 µM); 40.5% [middle of 15 runs] (compound 0.3 µM); 11.1% [middle of 15 runs] (compound 0.949 µM); 4% [middle of 15 runs] (compound 3 µM). Also, the IC50 under setting [1] was 211 nM [middle of 13 runs]; the IC50 (curve of compound) is 174 nM and 252 nM.
As to `CCN1CCN(Cc2ccc(Nc3ncc(F)c(-c4cc(F)c5nc(C)n(C(C)C)c5c4)n3)nc2)CC1`, the viability, T/C (compound 0.00316 µM) is 95% and 98.3% and 99.9%; the viability, T/C (compound 0.01 µM) was 82.9% and 85.2% and 108%; the viability, T/C (compound 0.0316 µM) is 78% and 88.9% and 94.2%; the viability, T/C (compound 0.1 µM) was 73.7% and 77.4% and 81.4%; the viability, T/C (compound 0.316 µM) was 70.5% and 69.2% and 73.2%; the viability, T/C (compound 1 µM) was 63.1% and 63.3% and 75.3%. Also, for the setting “curve of compound”, the IC50 was greater than 1000 nM.
`CNC(C)C(=O)NC1CN(S(=O)(=O)c2cccc(S(=O)(=O)N3CCC4CCC(C(=O)NC(c5ccccc5)c5ccccc5)N4C(=O)C(NC(=O)C(C)NC)C3)c2)CCC2CCC(C(=O)NC(c3ccccc3)c3ccccc3)N2C1=O` (centres undefined): the viability, T/C (compound 0.00316 µM) is 95.8% and 104%; the viability, T/C (compound 0.01 µM) was 96.8% [middle of 15 runs]; the viability, T/C (compound 0.0316 µM) was 98.1% [middle of 15 runs]; the viability, T/C (compound 0.1 µM) is 99.2% [middle of 15 runs]; the viability, T/C (compound 0.316 µM) is 99.9% [middle of 15 runs]; the viability, T/C (compound 1 µM) was 96.2% [middle of 15 runs]. For the same compound, the IC50 is greater than 1000 nM (compound alone, run of 10/03/2022) and greater than 1000 nM (curve of compound).
Turning to `COc1c(OCCCN2CCOCC2)ccc2c3n(c(=NC(=O)c4cnc(N)nc4)nc12)CCN3`, the viability, T/C reads like this: (compound 0.00316 µM) 93.8% and 96.5% and 105%; (compound 0.01 µM) 92% and 91.4% and 97.5%; (compound 0.0316 µM) 71.2% and 78.3% and 85.6%; (compound 0.1 µM) 51.4% and 57.8% and 60.5%; (compound 0.316 µM) 23.9% and 27.6% and 26.7%; (compound 1 µM) 6.91% and 7.65% and 9.2%. Besides, for the setting “curve of compound”, the IC50 is 99.9 nM and 131 nM and 140 nM.
With `Cc1c(S(C)(=O)=O)c(-c2cc(F)cc(N3CCN(c4ccc(NS(=O)(=O)c5ccc(NC(CCN6CCC(C(=O)OCCCP(=O)(O)O)CC6)CSc6ccccc6)c(S(=O)(=O)C(F)(F)F)c5)cc4)CC3)c2)c(-c2ccc(Cl)cc2)n1C(C)C` (centres undefined), the viability, T/C runs as follows: (compound 0.1 µM) 94.6% [middle of 14 runs]; (compound 0.316 µM) 96.1% [middle of 14 runs]; (compound 1 µM) 94.4% [middle of 14 runs]; (compound 3.16 µM) 90.3% [middle of 14 runs]; (compound 10 µM) 166% [middle of 14 runs]. For the same compound, the IC50 under setting [1] was greater than 10000 nM.
Turning to `Cc1nc(N2CCC3(CC2)COC(C)C3N)c(CO)nc1Sc1ccnc(N)c1Cl` (centres undefined), the viability, T/C (compound 0.00949 µM) was 98.2% and 101% and 93%; the viability, T/C (compound 0.03 µM) is 94% and 88.4% and 87.5%; the viability, T/C (compound 0.0949 µM) is 86.9% and 73.2% and 77%; the viability, T/C (compound 0.3 µM) was 76.2% and 64.7% and 71.6%; the viability, T/C (compound 0.949 µM) is 65.4% and 58.5% and 56.2%; the viability, T/C (compound 3 µM) was 49.8% and 40.1% and 52.5%. Moreover, for the setting “curve of compound”, the IC50 is > 3000 nM and 1400 nM.
For `Cn1ncnc1[C@H]1c2n[nH]c(=O)c3cc(F)cc(c23)N[C@@H]1c1ccc(F)cc1`, the viability, T/C (compound 0.000316 µM) was 95.8% and 103% and 101%; the viability, T/C (compound 0.001 µM) was 93.7% and 105% and 94%; the viability, T/C (compound 0.00316 µM) was 88.7% and 110% and 91.1%; the viability, T/C (compound 0.01 µM) is 61.8% and 77.4% and 65.8%; the viability, T/C (compound 0.0316 µM) is 28.1% and 33.8% and 26.1%; the viability, T/C (compound 0.1 µM) was 12.9% and 16.1% and 13.9%. Moreover, for the setting “curve of compound”, the IC50 is 15.1 nM and 20.5 nM and 15.8 nM.
Turning to `NC(=O)C(=Cn1cnc(-c2cc(C(F)(F)F)cc(C(F)(F)F)c2)n1)c1cncnc1`, the viability, T/C is, setting by setting: (compound 0.000949 µM) 89.1% and 91.1% and 101%; (compound 0.003 µM) 102% and 93.5% and 96.2%; (compound 0.00949 µM) 83.6% and 84.6% and 93.2%; (compound 0.03 µM) 71.5% and 61.5% and 78%; (compound 0.0949 µM) 14.8% and 17.4% and 17.2%; (compound 0.3 µM) 3.13% and 3.94%. The IC50 (curve of compound) is 45.9 nM and 40.1 nM and 50.9 nM.
With `NC1CCC(NC2CC2c2ccccc2)CC1` (centres undefined), the viability, T/C by setting is: (compound 0.000316 µM) 101% and 116% and 107%; (compound 0.001 µM) 97.7% and 101% and 104%; (compound 0.00316 µM) 104% and 101% and 98.6%; (compound 0.01 µM) 96.9% and 103% and 106%; (compound 0.0316 µM) 96.4% and 105% and 96.6%; (compound 0.1 µM) 89.5% and 98.1% and 92.1%. Moreover, the IC50 (curve of compound) is greater than 100 nM.
With `O=C(c1cc(Cc2n[nH]c(=O)c3ccccc23)ccc1F)N1CCN(C(=O)C2CC2)CC1`, the viability, T/C was 86.5% and 104% and 109% (compound 0.0316 µM); 89.6% and 99.6% and 105% (compound 0.1 µM); 92.9% and 93.8% and 98% (compound 0.316 µM); 78.8% and 89.2% and 93.4% (compound 1 µM); 58.8% and 71.2% and 71.8% (compound 3.16 µM); 18.3% and 19.8% and 20.8% (compound 10 µM). Where the note is “curve of compound”, the IC50 is 4010 nM and 5010 nM and 5130 nM.
As for `O=C(c1ccc(F)c(F)c1Nc1ccc(I)cc1F)N1CC(O)([C@@H]2CCCCN2)C1`, the viability, T/C runs as follows: (compound 0.00316 µM) 96.9% and 101% and 95.2%; (compound 0.01 µM) 96.2% and 95.5% and 92.5%; (compound 0.0316 µM) 88.3% and 78.5% and 90.8%; (compound 0.1 µM) 81% and 66.6% and 80.8%; (compound 0.316 µM) 60.5% and 59.8% and 60.2%; (compound 1 µM) 27.1% and 21.9% and 27.9%. Under “curve of compound”, the IC50 is 456 nM and 339 nM and 455 nM.
